This assay deals with T1, TLR7 (Homo sapiens, UniProt Q9NYK1).
T1 construct: expressed in transfected cells; host or cells: HEK cells carrying TLR7 and an NF-kB reporter read with Steady-Glo
T1 sequence (Q9NYK1 27-1049): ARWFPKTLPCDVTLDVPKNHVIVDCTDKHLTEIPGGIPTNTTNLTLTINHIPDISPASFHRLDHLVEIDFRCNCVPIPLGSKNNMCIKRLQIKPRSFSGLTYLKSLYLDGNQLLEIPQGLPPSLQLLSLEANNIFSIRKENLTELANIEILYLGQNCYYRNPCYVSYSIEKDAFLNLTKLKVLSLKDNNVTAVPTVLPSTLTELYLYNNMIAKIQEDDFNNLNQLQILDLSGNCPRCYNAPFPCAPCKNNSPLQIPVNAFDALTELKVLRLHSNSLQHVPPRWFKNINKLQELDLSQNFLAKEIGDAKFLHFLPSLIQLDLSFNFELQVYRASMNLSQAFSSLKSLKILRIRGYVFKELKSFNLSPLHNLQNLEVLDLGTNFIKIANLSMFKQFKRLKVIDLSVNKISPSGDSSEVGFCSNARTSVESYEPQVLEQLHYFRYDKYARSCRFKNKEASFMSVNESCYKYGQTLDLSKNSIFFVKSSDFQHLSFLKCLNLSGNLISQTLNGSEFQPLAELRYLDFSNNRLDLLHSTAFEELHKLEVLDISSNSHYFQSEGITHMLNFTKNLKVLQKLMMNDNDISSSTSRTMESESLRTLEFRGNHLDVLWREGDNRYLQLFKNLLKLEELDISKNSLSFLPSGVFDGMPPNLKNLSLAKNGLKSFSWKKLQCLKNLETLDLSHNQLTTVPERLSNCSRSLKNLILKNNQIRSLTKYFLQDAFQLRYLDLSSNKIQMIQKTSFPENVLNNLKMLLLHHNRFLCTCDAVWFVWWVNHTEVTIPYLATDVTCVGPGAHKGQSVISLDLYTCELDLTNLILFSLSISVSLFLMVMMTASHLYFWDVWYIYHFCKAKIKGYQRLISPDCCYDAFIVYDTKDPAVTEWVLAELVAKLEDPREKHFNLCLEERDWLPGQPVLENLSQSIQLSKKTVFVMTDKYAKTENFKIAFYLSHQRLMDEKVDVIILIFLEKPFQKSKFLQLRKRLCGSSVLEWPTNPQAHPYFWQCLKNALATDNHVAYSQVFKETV
The experiment in a line: HEK Cell Assay (TLR7/NFKb HEK reporter cells, Steady-Glo). In kind it is cell-based. The settings on record: compound 30 min, then R*48 agonist 5 hours, Steady-Glo readout, read-out: Potency. The method, then:
Example 32: HEK Cell Assay
Into 384 CulturePlates (Corning 3707) was placed 5000 c/w of TLR7/NFKb HEK cells in 30 uL DMEM without Phenil red (gibco #31053) and 10% i.a. FCS and 2 mM L-ZGLutamin. The cells were incubated for 24 h at 37 degrees Celsius, 10% carbon dioxide and 90% relative humidity, 3 uL of controls, standards, and compounds were dispensed to wells, incubated for 30 min then 3 uL of R*48 agonist in 20 mM Hepes was added. After incubation for 5 hours, it was allowed to stand at room temperature for 15 min, 10 uL of Steady-Glo substrate reagent was added and shake assay plate for 5 min at 1500 rpm. The assay plate was allowed to sit for 30 min at room temperature and then read plate on EnVision.
For `C[C@@H]1C[C@@H](c2ccc(C#N)c3ncccc23)CN(C(=O)CN2CCN(C)CC2)C1` (relative stereo) [Compound 30], the IC50 is less than 1 µM.
For `C[C@@H]1C[C@H](c2ccc(C#N)c3ncccc23)CN(C(=O)C2CN(C)C2)C1` (relative stereo) [Compound 31] the value was 1 to 20 µM.
For `C[C@@H]1C[C@@H](c2ccc(C#N)c3ncccc23)CN(C(=O)C2CN(C)C2)C1` (relative stereo) [Compound 32], the IC50 fell in the range of 1 to 20 µM.
For `C[C@@H]1C[C@H](c2ccc(C#N)c3ncccc23)CN(C(=O)CN2CCC2)C1` (relative stereo) [Compound 33] the value was 1 to 20 µM.
Regarding `C[C@@H]1C[C@H](c2ccc(C#N)c3ncccc23)CN(C(=O)CC2CN(C)C2)C1` (relative stereo) [Compound 34, cis-1-Methyl-1-[2-(1-methyl-azetidin-3-yl)-acetyl]-piperidin-3-yl-quinoline-8-carbonitrile], the IC50 was 1 to 20 µM.
For `C[C@@H]1C[C@H](c2ccc(C#N)c3ncccc23)CN(C(=O)c2ccc(N3CCC3)nc2)C1` (relative stereo) [Compound 36, cis-5-[1-(6-Azetidin-1-yl-pyridine-3-carbonyl)-5-methyl-piperidin-3-yl]-quinoline-8-carbonitrile], the IC50 was greater than 20 µM.
In the case of `C[C@@H]1C[C@H](c2ccc(C#N)c3ncccc23)CN(C(=O)C2CCC(F)(F)CC2)C1` (relative stereo) [Compound 37, cis-5-[1-(4,4-Difluoro-cyclohexanecarbonyl)-5-methyl-piperidin-3-yl]-quinoline-8-carbonitrile], the IC50 was greater than 20 µM.
Under `C[C@@H]1C[C@H](c2ccc(C#N)c3ncccc23)CN(C(=O)c2cc3n(n2)CCC3)C1` (relative stereo) [Compound 38, cis-5-[1-(5,6-Dihydro-4H-pyrrolo[1,2-b]pyrazole-2-carbonyl)-5-methyl-piperidin-3-yl]-quinoline-8-carbonitrile] stands greater than 20 µM; under `C[C@@H]1C[C@H](c2ccc(C#N)c3ncccc23)CN(C(=O)C2CCN(C)CC2)C1` (relative stereo) [Compound 39, cis-5-[5-Methyl-1-(1-methyl-piperidine-4-carbonyl)-piperidin-3-yl]-quinoline-8-carbonitrile], 1 to 20 µM; under `C[C@@H]1C[C@H](c2ccc(C(F)(F)F)c3ncccc23)CN(C(=O)NC2CC2)C1` (relative stereo) [Compound 40, cis-Cyclopropyl-3-methyl-5-[8-(trifluoromethyl)-5-quinolyl] piperidine-1-carboxamide], 1 to 20 µM.
For `C[C@@H]1C[C@@H](c2ccc(C(F)(F)F)c3ncccc23)CN(C(=O)NC2CC2)C1` (relative stereo) [Compound 41, trans-Cyclopropyl-3-methyl-5-[8-(trifluoromethyl)-5-quinolyl] piperidine-1-carboxamide] the value was 1 to 20 µM; for `C[C@@H]1C[C@H](c2ccc(C#N)c3ncccc23)CN(C(=O)CC2(N)CC2)C1` (relative stereo) [Compound 62, Cis-1-[2-(1-Amino-cyclopropyl)-acetyl]-5-methyl-piperidin-3-yl-quinoline-8-carbonitrile], 1 to 20 µM; for `C[C@H]1C[C@H](c2ccc(C#N)c3ncccc23)CN(C(=O)CC2(N)CC2)C1` (relative stereo) [Compound 63, Trans-1-[2-(1-Amino-cyclopropyl)-acetyl]-5-methyl-piperidin-3-yl-quinoline-8-carbonitrile], 1 to 20 µM.
Take `C[C@H]1C[C@H](c2ccc(C#N)c3ncccc23)CN(CC(N)=O)C1` (relative stereo) [Compound 66]: the IC50 was greater than 20 µM.
For `C[C@@H]1C[C@H](c2ccc(C#N)c3ncccc23)CN(CC(N)=O)C1` (relative stereo) [Compound 67] the value was greater than 20 µM.
Under `C[C@@H]1C[C@H](c2ccc(C#N)c3ncccc23)CN(CC(=O)NC2CCN(C)CC2)C1` (relative stereo) [Compound 68, cis-2-[3-(8-Cyano-quinolin-5-yl)-5-methyl-piperidin-1-yl]-N-(1-methyl-piperidin-4-yl)-acetamide] stands 1 to 20 µM; under `C[C@@H]1C[C@@H](c2ccc(C#N)c3ncccc23)CN(CC(=O)NC2CCN(C)CC2)C1` (relative stereo) [Compound 69, trans-2-[3-(8-Cyano-quinolin-5-yl)-5-methyl-piperidin-1-yl]-N-(1-methyl-piperidin-4-yl)-acetamide], 1 to 20 µM; under `C[C@@H]1C[C@H](c2ccc(C#N)c3ncccc23)CN(CC(=O)N2CCC(N(C)C)CC2)C1` (relative stereo) [Compound 70, cis-5-(1-{2-[4-(dimethylamino)piperidin-1-yl]-2-oxoethyl}-5-methylpiperidin-3-yl) quinoline-8-carbonitrile], 1 to 20 µM.
Under `C[C@@H]1C[C@@H](c2ccc(C#N)c3ncccc23)CN(CC(=O)N2CCC(N(C)C)CC2)C1` (relative stereo) [Compound 71, trans-5-(1-{2-[4-(dimethylamino)piperidin-1-yl]-2-oxoethyl}-5-methylpiperidin-3-yl) quinoline-8-carbonitrile] stands 1 to 20 µM.
Regarding `C[C@@H]1C[C@H](c2ccc(C#N)c3ncccc23)CN(CC(=O)NCCN2CCN(C)CC2)C1` (relative stereo) [Compound 72, cis-2-[3-(8-Cyano-quinolin-5-yl)-5-methyl-piperidin-1-yl]-N-[2-(4-methyl-piperazin-1-yl)-ethyl]-acetamide], the IC50 was 1 to 20 µM.
For `C[C@@H]1C[C@@H](c2ccc(C#N)c3ncccc23)CN(CC(=O)NCCN2CCN(C)CC2)C1` (relative stereo) [Compound 73, trans-2-[3-(8-Cyano-quinolin-5-yl)-5-methyl-piperidin-1-yl]-N-[2-(4-methyl-piperazin-1-yl)-ethyl]-acetamide] the value was 1 to 20 µM; for `C[C@@H]1C[C@H](c2ccc(C#N)c3ncccc23)CN(CC(=O)NCC2CCN(C)CC2)C1` (relative stereo) [Compound 74, cis-2-[3-(8-Cyano-quinolin-5-yl)-5-methyl-piperidin-1-yl]-N-(1-methyl-piperidin-4-ylmethyl)-acetamide], 1 to 20 µM.
For `C[C@@H]1C[C@@H](c2ccc(C#N)c3ncccc23)CN(CC(=O)NCC2CCN(C)CC2)C1` (relative stereo) [Compound 75, trans-2-[3-(8-Cyano-quinolin-5-yl)-5-methyl-piperidin-1-yl]-N-(1-methyl-piperidin-4-ylmethyl)-acetamide], the IC50 lay in the range of 1 to 20 µM.
Under `C[C@@H]1C[C@H](c2ccc(C#N)c3ncccc23)CN(CC(=O)Nc2cnn(C)c2)C1` (relative stereo) [Compound 76, cis-2-[3-(8-Cyano-quinolin-5-yl)-5-methyl-piperidin-1-yl]-N-(1-methyl-1H-pyrazol-4-yl)-acetamide] stands greater than 20 µM; under `C[C@@H]1C[C@@H](c2ccc(C#N)c3ncccc23)CN(CC(=O)Nc2cnn(C)c2)C1` (relative stereo) [Compound 77, trans-2-[3-(8-Cyano-quinolin-5-yl)-5-methyl-piperidin-1-yl]-N-(1-methyl-1H-pyrazol-4-yl)-acetamide], greater than 20 µM; under `C[C@@H]1C[C@H](c2ccc(C#N)c3ncccc23)CN(C(=O)CC2[C@H]3CN(C)C[C@@H]23)C1` (relative stereo) [Compound 79], less than 1 µM.
Under `C[C@@H]1C[C@H](c2ccc(C#N)c3ncccc23)CN(C(=O)Cc2cnn(C)c2)C1` (relative stereo) [Compound 107, cis-5-Methyl-1-[2-(1-methyl-1H-pyrazol-4-yl)-acetyl]-piperidin-3-yl-quinoline-8-carbonitrile] stands greater than 20 µM; under `C[C@@H]1C[C@H](c2ccc(C#N)c3ncccc23)CN(C(=O)c2cnn(C)c2)C1` (relative stereo) [Compound 108, cis-5-Methyl-1-(1-methyl-H-pyrazole-4-carbonyl)-piperidin-3-yl-quinoline-8-carbonitrile], 1 to 20 µM.
